# Test results taken from patent US12667568B2, “Compositions and methods for the treatment and diagnosis of cancer” (The General Hospital Corporation, priority 2020, dated 2026).
# Tests used:
# Assay type in all cases: cell-based
# U2OS (DR-GFP) cells = assay: DR-GFP HR reporter assay; conditions: 2.5 μM/L, 6 h pre-treatment, versus DMSO
# Method: (§1) FIGS. 6A-6E show TRDMT1 Inhibitors specifically sensitizes cells to DNA damage agents. (FIG. 6A) SCE WT cells were transfected with TA-KR and were cultured with 2.5 μM/L compound YW-1842 or not for 6 hours, m^5C (n=3, 50 cells per replicated, Mean±SD) was stained and quantified. DR-GFP (FIG. 6B) or EJ5-GFP (FIG. 6C) cells were pre-treated with 2.5 μM/L compound YW-1842 for 6 h or TRDMT1 siRNA for 48 h, or DMSO. Then the cells were transfected with NLS-I-SceI plasmid to induce DSB. The efficiency of HR (FIG. 6B) or NHEJ (FIG. 6C) was analyzed by flow-cytometry (n=3, Mean f SD). (FIG. 6D) After seeding, MCF-7, HCC1954, and HCC1937 cells were pre-treated with or without 2.5 μM/L compound YW-1842 for 6 h, then cultured with chemotherapy drugs (1 μM/L Cisplatin; 1 μM/L ATRi AZ20; […]; 1 μM/L PARPi Olaparib for 10 days. The survival rate of these cells was analyzed (n=3, Mean±SD). (FIG. 6E) TRDMT1 KO U2OS cells were transfected with GFP-TRDMT1^WT or GFP-TRDMT1^G155V with or without 2.5 μM/L compound YW-1842, the survival rate of these cells after IR or Cisplatin was shown (n=3, Mean±SD).
# Using a previously described method[Lan, L. et al. The ACF1 complex is required for DNA double-strand break repair in human cells. […] The GFP signal arising from the recombination (HR) or non-homologous end joining (NHEJ) events were measured by flow cytometry.
# γ-H2AX foci = γ-H2AX foci clearance after damage; conditions: 2.5 μM/L YW-1842, cells after IR
# Method: FIGS. 6F-6G show TRDMT1 inhibitor YW-1842 delays the repair of DSBs at the transcribed genome. (FIG. 6F) U2OS or MCF7 cells were treated with or without compound YW-1842 at the indicated concentration. […]
# Cells for immunofluorescence observation were fixed in 4% PFA (Affymetrix, 19943 1 LT) at room temperature for 15 min and further treated with 0.2% triton for 10 min. They were then blocked by 3% BSA (SIGMA, A-7030) at room temperature for 1 h. Primary antibody for RAD51(ab63801, Abcam, 1:200)), RAD52(sc-365341, Santa Cruz, CA, USA, 1:500), TRIM28 (ab10484, Abcam, 1:500), γH2AX ser139 (JBW301, 05-636, EMD Millipore, 1:200), were incubated with cells at 4° C. overnight. After washing with 0.05% PBS-Tween (PBST), the cells were incubated with secondary antibody for 1 h at room temperature.
# TRDMT1 = biological target: T1, TRDMT1 (Homo sapiens, UniProt O14717); assay: m5C staining at TA-KR DNA damage sites
# T1 construct: SCE WT cells were transfected with TA-KR and were cultured with 2.5 μM/L compound YW-1842 or not for 6 hours; endogenous in cells
# T1 sequence (O14717 1-391): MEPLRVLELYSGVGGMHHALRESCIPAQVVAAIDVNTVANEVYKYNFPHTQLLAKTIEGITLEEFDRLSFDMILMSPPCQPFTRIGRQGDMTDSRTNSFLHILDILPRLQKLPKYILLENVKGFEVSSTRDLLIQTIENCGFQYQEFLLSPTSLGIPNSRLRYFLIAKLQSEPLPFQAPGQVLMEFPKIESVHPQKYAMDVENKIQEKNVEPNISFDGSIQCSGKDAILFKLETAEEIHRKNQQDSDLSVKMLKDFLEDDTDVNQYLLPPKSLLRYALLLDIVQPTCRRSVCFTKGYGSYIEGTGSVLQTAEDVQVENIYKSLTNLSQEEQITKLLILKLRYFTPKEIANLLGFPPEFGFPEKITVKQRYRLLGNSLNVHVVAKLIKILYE
# Method: as §1
# The Olympus FV1000 confocal microscopy system (Cat. FIOPRDMYR-1, Olympus) and FV1000 software were used for the acquisition of images. Cells were cultured in 35 mm glass-bottom dishes (MatTek, P35GC-1.5-14-C) before observation. […] The intensity was measured by ImageJ 1.52i software. […]
structure (smiles),measurement,setting,value
"COc1cc2nc(-n3cc(-c4ccc(S(C)(=O)=O)cc4)cn3)nc(-c3ccsc3)c2cc1OC [YW-1842, 6,7-dimethoxy-2-(4-(4-(methylsulfonyl)phenyl)-1H-pyrazol-1-yl)-4-(thiophen-3-yl)quinazoline]",HR-mediated repair of I-SceI-generated DSBs (DR-GFP),U2OS (DR-GFP) cells,diminished the repair of I-SceI-generated DSBs
same,"DNA repair efficiency, clearance of γ-H2AX foci",γ-H2AX foci,delayed clearance of γ-H2AX foci
same,m^5C inhibitory activity,"TRDMT1; 2.5 μM/L, 6 hours, TA-KR sites (FIG. 6A)",almost equivalent to TRDMT1 depletion
same,"inhibiting TRDMT1 recruitment, m^5C formation and HR efficiency at DNA damage sites",TRDMT1; summary statement,performed well
